# Data published in ChEMBL document CHEMBL1208782, “Synthesis and pharmacological validation of a novel series of non-steroidal FXR agonists” (Bioorg Med Chem Lett, 2010).
# Columns and labels:
# Assay type in all cases: functional, cell-based
# [1] = molecular target: T1, CAR (nuclear receptor subfamily 1 group I member 3) (Homo sapiens, UniProt Q14994); test: Agonist activity at CAR-LBD expressed in HEK293 cells assessed as Gal4-DBD interaction by cellular mammalian one hybrid assay relative to androstane; conditions: HEK293 cells expressing CAR-LBD, read-out: Efficacy
# T1 sequence (Q14994 whole entry): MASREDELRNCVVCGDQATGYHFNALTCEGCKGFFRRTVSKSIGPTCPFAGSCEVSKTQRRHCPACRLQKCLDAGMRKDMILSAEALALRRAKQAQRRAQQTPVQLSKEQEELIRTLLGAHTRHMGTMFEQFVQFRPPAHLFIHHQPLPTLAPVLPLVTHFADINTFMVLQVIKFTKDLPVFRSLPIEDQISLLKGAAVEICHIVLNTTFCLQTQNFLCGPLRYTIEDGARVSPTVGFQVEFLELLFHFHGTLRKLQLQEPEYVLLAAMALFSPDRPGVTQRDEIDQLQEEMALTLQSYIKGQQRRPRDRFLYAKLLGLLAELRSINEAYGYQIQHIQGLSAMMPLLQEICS
# [2] = molecular target: T2, Thyroid hormone receptor alpha (Homo sapiens, UniProt P10827); test: Agonist activity at TRalpha-LBD expressed in HEK293 cells assessed as Gal4-DBD interaction by cellular mammalian one hybrid assay
# T2 sequence (P10827 whole entry): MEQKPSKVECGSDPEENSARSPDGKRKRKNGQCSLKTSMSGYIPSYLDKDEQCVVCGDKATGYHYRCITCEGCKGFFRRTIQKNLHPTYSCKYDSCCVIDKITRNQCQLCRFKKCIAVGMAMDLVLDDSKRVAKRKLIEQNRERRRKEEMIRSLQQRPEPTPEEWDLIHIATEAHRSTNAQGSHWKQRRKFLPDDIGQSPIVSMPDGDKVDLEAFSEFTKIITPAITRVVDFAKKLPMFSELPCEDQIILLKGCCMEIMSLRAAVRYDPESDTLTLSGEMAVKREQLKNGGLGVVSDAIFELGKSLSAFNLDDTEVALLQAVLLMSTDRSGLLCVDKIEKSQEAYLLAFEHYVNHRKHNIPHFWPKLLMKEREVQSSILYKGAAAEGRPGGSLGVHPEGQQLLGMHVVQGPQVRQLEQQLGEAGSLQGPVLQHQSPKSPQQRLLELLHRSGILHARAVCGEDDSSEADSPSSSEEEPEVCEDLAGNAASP
# [3] = molecular target: T3, Mineralocorticoid receptor (Homo sapiens, UniProt P08235); test: Agonist activity at mineralocorticoid receptor-LBD expressed in HEK293 cells assessed as Gal4-DBD interaction by cellular mammalian one hybrid assay
# T3 sequence (P08235 whole entry): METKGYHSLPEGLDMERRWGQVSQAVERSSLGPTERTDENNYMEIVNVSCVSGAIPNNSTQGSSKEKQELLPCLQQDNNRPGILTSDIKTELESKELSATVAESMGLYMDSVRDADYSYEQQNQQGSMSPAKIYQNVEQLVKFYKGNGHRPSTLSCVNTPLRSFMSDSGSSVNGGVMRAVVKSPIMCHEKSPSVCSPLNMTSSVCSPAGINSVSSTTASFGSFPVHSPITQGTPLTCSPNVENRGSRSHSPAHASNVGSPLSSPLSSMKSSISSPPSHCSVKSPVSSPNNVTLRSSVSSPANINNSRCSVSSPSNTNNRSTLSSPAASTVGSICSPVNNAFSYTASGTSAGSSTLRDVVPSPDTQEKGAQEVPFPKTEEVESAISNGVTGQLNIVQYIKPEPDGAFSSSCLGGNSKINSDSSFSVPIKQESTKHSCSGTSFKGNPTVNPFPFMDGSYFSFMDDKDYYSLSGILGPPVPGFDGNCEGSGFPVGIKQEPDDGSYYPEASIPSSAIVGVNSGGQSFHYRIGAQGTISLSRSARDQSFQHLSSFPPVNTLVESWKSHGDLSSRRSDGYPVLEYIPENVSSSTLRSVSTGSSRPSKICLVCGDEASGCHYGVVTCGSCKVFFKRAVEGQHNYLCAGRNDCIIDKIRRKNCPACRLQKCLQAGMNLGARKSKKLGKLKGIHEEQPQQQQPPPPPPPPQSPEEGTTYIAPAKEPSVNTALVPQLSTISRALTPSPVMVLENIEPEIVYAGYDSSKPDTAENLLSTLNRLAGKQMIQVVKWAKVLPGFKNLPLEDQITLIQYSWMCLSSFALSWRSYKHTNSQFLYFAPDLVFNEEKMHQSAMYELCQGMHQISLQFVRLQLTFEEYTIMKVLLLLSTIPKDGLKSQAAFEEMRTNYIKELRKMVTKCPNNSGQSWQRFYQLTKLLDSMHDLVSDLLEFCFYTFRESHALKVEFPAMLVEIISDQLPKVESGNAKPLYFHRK
# [4] = molecular target: T4, Thyroid hormone receptor alpha (Homo sapiens) (UniProt P10827); test: Agonist activity at TRalpha-LBD expressed in HEK293 cells assessed as Gal4-DBD interaction by cellular mammalian one hybrid assay relative to thyroid
# T4 sequence (whole entry): T2 sequence (P10827 whole entry)
# [5] = molecular target: T5, Vitamin D3 receptor (Homo sapiens) (UniProt P11473); test: Agonist activity at VDR-LBD expressed in HEK293 cells assessed as Gal4-DBD interaction by cellular mammalian one hybrid assay relative to vitamin D
# T5 sequence (whole entry): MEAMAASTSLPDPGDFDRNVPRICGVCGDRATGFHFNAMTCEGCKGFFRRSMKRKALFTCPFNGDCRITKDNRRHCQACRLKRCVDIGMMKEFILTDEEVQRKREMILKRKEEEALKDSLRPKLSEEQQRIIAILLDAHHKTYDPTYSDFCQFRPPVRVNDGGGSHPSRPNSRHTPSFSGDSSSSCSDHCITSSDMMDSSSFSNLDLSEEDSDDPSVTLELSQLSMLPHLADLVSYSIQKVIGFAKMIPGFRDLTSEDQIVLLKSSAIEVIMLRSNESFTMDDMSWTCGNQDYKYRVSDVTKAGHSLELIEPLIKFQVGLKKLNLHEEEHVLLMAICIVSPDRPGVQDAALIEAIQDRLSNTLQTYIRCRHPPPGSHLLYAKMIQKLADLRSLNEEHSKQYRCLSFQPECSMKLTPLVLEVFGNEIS
SMILES,Emax [1] [%],EC50 [2] [µM],EC50 [3] [µM],Efficacy [4] [%],Efficacy [5] [%]
CN(Cc1cccc(C(=O)O)c1)c1ccc(OCc2c(-c3c(Cl)cccc3Cl)noc2C2CC2)nc1C(F)(F)F,0,> 10,> 10,0,0
CN(Cc1ccc(C(=O)O)cc1)c1ccc(OCc2c(-c3c(Cl)cccc3Cl)noc2C2CC2)nc1C(F)(F)F,0,> 10,> 10,0,0
CC(C)c1onc(-c2c(Cl)cccc2Cl)c1COc1ccc(N(C)Cc2ccc(C(=O)O)cc2)c(C(F)(F)F)n1,0,> 10,> 10,0,0
